Source: ChEMBL document CHEMBL3351936, “Novel 25-hydroxyprotopanaxadiol derivatives incorporating chloroacetyl chloride and their anti-tumor evaluation” (Bioorg Med Chem Lett, 2014)

What was measured:
[1] = Antiproliferative activity against human BGC823 cells assessed as cell-growth inhibition after 48 hrs by MTT assay; assay type: functional, cell-based; settings: BGC-823, 48 h
HeLa = experiment: Antiproliferative activity against human HeLa cells assessed as cell-growth inhibition after 48 hrs by MTT assay; assay type: functional, cell-based
MCF7 = experiment: Antiproliferative activity against human MCF7 cells assessed as cell-growth inhibition after 48 hrs by MTT assay; assay type: functional, cell-based; settings: MCF7, 48 h
[2] = Antiproliferative activity against human U87 cells assessed as cell-growth inhibition after 48 hrs by MTT assay; assay type: functional, cell-based, U-87MG ATCC; settings: U-87 MG
[3] = Antiproliferative activity against human HCT116 cells assessed as cell-growth inhibition after 48 hrs by MTT assay; assay type: functional, cell-based; settings: HCT-116, 48 h
LoVo = experiment: Antiproliferative activity against human LoVo cells assessed as cell-growth inhibition after 48 hrs by MTT assay; assay type: functional, cell-based

| SMILES | IC50 [1] | IC50 (HeLa) | IC50 (MCF7) | IC50 [2] | IC50 [3] | IC50 (LoVo) |
| --- | --- | --- | --- | --- | --- | --- |
| CC(C)(O)CCC[C@@](C)(O)[C@H]1CC[C@]2(C)[C@@H]1[C@H](OC(=O)CCl)C[C@@H]1[C@@]3(C)CC[C@H](O)C(C)(C)[C@@H]3CC[C@]12C | 30.9 µM | 37.2 µM | 26.2 µM | 7.3 µM | 32.1 µM | 31.1 µM |
| CC(C)(O)CCC[C@@](C)(O)[C@H]1CC[C@]2(C)[C@@H]1[C@H](O)C[C@@H]1[C@@]3(C)CC[C@H](O)C(C)(C)[C@@H]3CC[C@]12C | 44.2 µM | 48.6 µM | 49.6 µM | 27.5 µM | 33.3 µM | 46.7 µM |
| CC(=O)O[C@H]1CC[C@]2(C)[C@H]3C[C@@H](O)[C@@H]4[C@@H]([C@](C)(O)CCCC(C)(C)O)CC[C@@]4(C)[C@]3(C)CC[C@H]2C1(C)C | 34.6 µM | 30.2 µM | 19.5 µM | 32.6 µM | 20.5 µM | 44.9 µM |
| CC(=O)O[C@H]1CC[C@]2(C)[C@H]3C[C@@H](OC(C)=O)[C@@H]4[C@@H]([C@](C)(O)CCCC(C)(C)O)CC[C@@]4(C)[C@]3(C)CC[C@H]2C1(C)C | 42.3 µM | 28.9 µM | 23.5 µM | 41.2 µM | 17.1 µM | 35.6 µM |
| CC(C)(O)CCC[C@@](C)(O)[C@H]1CC[C@]2(C)[C@@H]1[C@H](OC(=O)CCl)C[C@@H]1[C@@]3(C)CC[C@H](OC(=O)CCl)C(C)(C)[C@@H]3CC[C@]12C | 61.8 µM | 68.9 µM | 38.1 µM | 88.1 µM | 45.6 µM | 41 µM |
| C/C(=C/CCC(C)(C)O)[C@H]1CC[C@]2(C)[C@@H]1[C@H](OC(=O)CCl)C[C@@H]1[C@@]3(C)CC[C@H](O)C(C)(C)[C@@H]3CC[C@]12C | 42.3 µM | 44.4 µM | 37.8 µM | 34.6 µM | 8.6 µM | 31 µM |
| C=C(CCCC(C)(C)OC(=O)CCl)[C@H]1CC[C@]2(C)[C@@H]1[C@H](O)C[C@@H]1[C@@]3(C)CC[C@H](O)C(C)(C)[C@@H]3CC[C@]12C | 27.1 µM | 39.7 µM | 10.8 µM | 10.1 µM | 42.8 µM | 40 µM |
| C/C(=C/CCC(C)(C)O)[C@H]1CC[C@]2(C)[C@@H]1[C@H](OC(=O)CCl)C[C@@H]1[C@@]3(C)CC[C@H](OC(=O)CCl)C(C)(C)[C@@H]3CC[C@]12C | 7.1 µM | 37.6 µM | 1.6 µM | 16.6 µM | 2.6 µM | 1.7 µM |
| CC(C)(CCC[C@@](C)(OC(=O)CCl)[C@H]1CC[C@]2(C)[C@@H]1[C@H](O)C[C@@H]1[C@@]3(C)CC[C@H](O)C(C)(C)[C@@H]3CC[C@]12C)OC(=O)CCl | 32.4 µM | 52.6 µM | 12.1 µM | 19.2 µM | 56.1 µM | 61.2 µM |
| C=C(CCCC(C)(C)O)[C@H]1CC[C@]2(C)[C@@H]1[C@H](O)C[C@@H]1[C@@]3(C)CC[C@H](OC(=O)CCl)C(C)(C)[C@@H]3CC[C@]12C | 44.4 µM | 60.9 µM | 18.9 µM | 14.1 µM | 12.1 µM | 19.1 µM |
| C/C(=C/CCC(C)(C)OC(=O)CCl)[C@H]1CC[C@]2(C)[C@@H]1[C@H](O)C[C@@H]1[C@@]3(C)CC[C@H](OC(=O)CCl)C(C)(C)[C@@H]3CC[C@]12C | 24.2 µM | 23.4 µM | 7.9 µM | 21.3 µM | 1.2 µM | 1.3 µM |
| O=c1[nH]cc(F)c(=O)[nH]1 [FLUOROURACIL] | 35.6 µM | 18.1 µM |  | 38.2 µM | 36.2 µM | 12.7 µM |
| CC(C)(CCC[C@@](C)(O)[C@H]1CC[C@]2(C)[C@@H]1[C@H](O)C[C@@H]1[C@@]3(C)CC[C@H](OC(=O)CCl)C(C)(C)[C@@H]3CC[C@]12C)OC(=O)CCl | 6.9 µM | 27.1 µM | 3.7 µM | 40.1 µM | 38.2 µM | 58.1 µM |
| CC(C)(O)CCC[C@@](C)(O)[C@H]1CC[C@]2(C)[C@@H]1[C@H](O)C[C@@H]1[C@@]3(C)CC[C@H](OC(=O)CCl)C(C)(C)[C@@H]3CC[C@]12C | 63.6 µM | 68.1 µM | 84.3 µM | 31.9 µM | 20.4 µM | 45.8 µM |
| CC(=O)O[C@@H]1C[C@@H]2[C@@]3(C)CC[C@H](O)C(C)(C)[C@@H]3CC[C@@]2(C)[C@]2(C)CC[C@H]([C@](C)(O)CCCC(C)(C)O)[C@@H]12 | 28.7 µM | 39.9 µM | 15.6 µM | 34.4 µM | 18.9 µM | 36.7 µM |
| C=C(CCCC(C)(C)O)[C@H]1CC[C@]2(C)[C@@H]1[C@H](OC(=O)CCl)C[C@@H]1[C@@]3(C)CC[C@H](O)C(C)(C)[C@@H]3CC[C@]12C | 45.2 µM | 56.6 µM | 9.8 µM | 24.6 µM | 22.5 µM | 23.5 µM |
| C=C(CCCC(C)(C)O)[C@H]1CC[C@]2(C)[C@@H]1[C@H](OC(=O)CCl)C[C@@H]1[C@@]3(C)CC[C@H](OC(=O)CCl)C(C)(C)[C@@H]3CC[C@]12C | 8.3 µM | 21.7 µM | 1.7 µM | 22.8 µM | 1.6 µM | 2.1 µM |
